Reference: US20240226100A1, “CONTROL OF PROTEIN EXPRESSION WITH TMP-PROTAC COMPOUNDS” (THE TRUSTEES OF THE UNIVERSITY OF PENNSYLVANIA, priority 2021, published 2024)

Experiments:
eDHFR-Lck fusion protein = experiment: Dose response in HEK293T eDHFR-Lck cells, Western blot; format: cell-based, Escherichia coli; conditions: 24 h
eDHFR-YFP [1] = experiment: Degradation of eDHFR-YFP in HEK293T eDHFR-YFP+ cells, Western blot with anti-YFP antibody; format: cell-based, Escherichia coli; conditions: 100 nM, 24 h
Protocol: HEK293T eDHFR-YFP (HEK293T^eDHFR-YFP+) and OVCAR8 eDHFR-luc (OVCAR8^eDHFR-luc+) cells are prepared in clear (Falcon) 6-well plates (5×10^5 cells/well) and cultured in complete media. Compound 7c is solubilized in 100% DMSO to 10 mM. 10 mM 7c is serially diluted in sterile water accordingly and each dose administered to cells in fresh media at equal volume, such that the final concentration of DMSO in cell media is <1%. Once incubation with drug is completed, media is removed by vacuum, cells are washed with phosphate-buffered saline (PBS), trypsonized at 37° C., quenched with media, and centrifuged (Thermo Scientific Sorvall Legend X1R) at 1000 RPM for 5 minutes. Media and cell debris are removed by vacuum.
Once cells are isolated by centrifugation (Thermo Scientific Sorvall Legend X1R), they are solubilized in radioimmunoprecipitation assay (RIPA) lysis buffer with protease inhibitor. Cell lysate is incubated on ice for 30 minutes, sonicated, then centrifuged (Thermo Scientific Sorvall Legend Micro 21R) at 14,800 RPM for 10 minutes. Supernatant is removed and transferred to a new Eppendorf tube.
Using Thermo Scientific bicinchoninic acid (BCA) assay kit, total cell protein is quantified and compared to bovine serum albumin (BSA) standards ranging from 10 to 0.625 mg/mL. Cell lysate is aliquoted into a 96-well clear plate (Falcon) and mixed with reagent and shaken at 37° C. for 30 minutes. Samples are analyzed by plate reader (ThermoFisher Varioskan Plusplate), where absorbance is measured at […]. A calibration curve is developed, and samples are prepared to equal mass (mg) of total protein for gel electrophoresis.
Cell lysate is prepared by mixing with 4 uL of loading dye and PBS to give equal total protein and equal total volume across all samples. Each sample is loaded into a NuPage gel (4-12% Bis-tris) and developed in NuPage MES Running Buffer. Once complete, the gel is removed and prepared for protein transfer to membrane. […]

eDHFR-Luc [2] = experiment: Time course in OVCAR8 eDHFR-Luc cells, luminescence; format: cell-based, Escherichia coli; conditions: between 390 and 24 nM
Protocol: OVCAR8^eDHR-luc+ cells were plated in black wall/clear bottom (Falcon) 96-well plates (4×10^4 cells/well) in 200 uL of complete media and incubated with serially diluted compound 7c at −48, −24, −12, −8 and −4 h and analyzed together at 0 h (t=0). Luciferin is prepared to 1× with complete media and 50 uL of Luciferin solution is added to the cells which are then analyzed by plate reader (ThermoFisher Varioskan Plusplate).
After the addition of Luciferin/complete media solution, luminescence was measured at the same time (t=0) by plate reader. 90% degradation of eDHFR-luc measured in 12 h between 390 and 24 nM, and 95% degradation of eDHFR-luc measured in 24 h between 390 and 24 nM.

FAP-eDHFR DF CAR T cells = experiment: In vitro killing assay of FAP-eDHFR DF CAR T cells against I45 huFAP-Luc target cells
[3] = test system: FAP CAR-eDHFR direct fusion (DF); experiment: Washout kinetic assay of CAR expression in primary human FAP-eDHFR DF CAR T cells; format: cell-based; conditions: 100 nM, washout after 24 h
Protocol: Following a 24 hour incubation with TMP-POM 7c, the remaining cells were washed multiple times with […] (Corning) to remove the drug, returned to culture in a new 12-well plate, and then again sampled serially at different time points following the wash (3, 6, 24, 48, and 72 hours post-washout). All cells were stained for CAR and fixed in 4% following sampling, and were analyzed on a flow cytometer (LSR II, BD Biosciences).
Following 24-hour incubation with TMP-POM 7c, the cells were washed multiple times to remove the drug (red arrow), seeded on a new plate, and then again sampled serially following the drug washout. All cells were stained for CAR and fixed in 4% following sampling.

TNFα = experiment: Cytokine release assay, TNFα ELISA of killing assay supernatant; format: cell-based, human
Protocol: The concentration of TNF-α and IFN-g in the supernatants following killing assay was determined by ELISA.

eDHFR-YFP [4] = experiment: Degradation of YFP in HEK293T-DYL cells, flow cytometry; format: cell-based, Escherichia coli; conditions: 72 and 96 h, varying doses
Source text: The left panel represents the mean YFP fluorescence and the right panel represents the same data in percent of maximum YFP fluorescence normalized to HEK293T-DYL treated with DMSO.

eDHFR-YFP [5] = experiment: Washout experiment, eDHFR-YFP recovery in HEK293T eDHFR-YFP+ cells, Western blot; format: cell-based, Escherichia coli; conditions: 100 nM 7c, washed twice with PBS
Protocol: HEK293T^eDHFR-YFP+ cells were seeded in a clear (Falcon) 12-well plate (3×10^5 cells/well) in complete media. The next day, cells were incubated with 100 nM 7c for 24 h in complete media. Media was removed by vacuum, cells were gently washed with 1 mL PBS 2×, then cell media was replenished. Next, cells were isolated +0 to 24 h after washing and prepared for Western blot analysis.
Protein degradation is reversed in as early as 4 h after drug removal from cell media.

eDHFR-Luc [6] = experiment: Degradation of luciferase in Jurkat-DL cells, luminescence; format: cell-based, Escherichia coli; conditions: 4, 8 and 18 h, varying doses

Q: How did the “concentration of optimal degradation of eDHFR-Lck fusion protein” value (eDHFR-Lck fusion protein) turn out when `COc1cc(Cc2cnc(N)nc2N)cc(OC)c1OCCCC(=O)NCCOCCOCCNc1cccc2c1C(=O)N(C1CCC(=O)NC1=O)C2=O` (stereo not shown) [Compound 7c, 4-(4-((2,4-diaminopyrimidin-5-yl)methyl)-2,6-dimethoxyphenoxy)-N-(2-(2-(2-((2-(2,6-dioxopiperidin-3-yl)-1,3-dioxoisoindolin-4-yl)amino)ethoxy)ethoxy)ethyl)butanamide] was run?
A: 97 nM

Q: What about the “eDHFR-YFP degradation at 100 nM” value (eDHFR-YFP [1]) of the same molecule?
A: causes eDHFR-YFP to degrade

Q: What about the “degradation of eDHFR-luc” value (eDHFR-Luc [2]; 12 h) of the same molecule?
A: 90%

Q: And the “degradation of eDHFR-luc” value (eDHFR-Luc [2]; 24 h)?
A: 95%

Q: And the “cytotoxic function of FAP-eDHFR CAR T cells against FAP-expressing target cells” value (FAP-eDHFR DF CAR T cells; CAR T cells pre-incubated 24 h with 100 nM compound, varying E:T ratios)?
A: inhibition of their cytotoxic function

Q: And the “cytotoxic activity of FAP-eDHFR DF CAR T cells across concentrations” value (FAP-eDHFR DF CAR T cells; pre-incubated overnight at different concentrations, 10:1 E:T)?
A: tunable in a dose-dependent manner

Q: What about the “time following washout for CAR expression to return to baseline” value [3] of the same molecule?
A: ~72 h

Q: And the “time following washout for CAR expression to start recovering” value [3]?
A: around 24 hours

Q: What about the “TNFα secretion across concentrations” value (TNFα; different concentrations, 10:1 E:T) of the same molecule?
A: inhibition of CAR T cell signaling

Q: And the “T cell TNF-α release” value (TNFα; supernatant of killing assay, 100 nM compound)?
A: inhibits

Q: And the “degradation of YFP” value (eDHFR-YFP [4])?
A: degraded

Q: What about the “time after drug removal at which protein degradation is reversed” value (eDHFR-YFP [5]) of the same molecule?
A: ≤ 4 h

Q: What about the degradation of luciferase (eDHFR-Luc [6]) of the same molecule?
A: degraded
